Source: patent US20060079497A1, “Lavendamycin analogues and methods of synthesizing and using lavendamycin analogues” (Ball State University, priority 2004, published 2006)
“And” between values parts separate entries of the source, which are not always exact repeats. Equal values may be shown once. Read-outs that look alike come from different tables or passages of the source.

Assays:
[1] = biological target: T1, HIV reverse transcriptase (HIV-RT) (Human immunodeficiency virus type 1 group M subtype B, UniProt P04585); test: HIV-RT assay (3H-TTP incorporation, modified assay of Okada et al.); assay type: biochemical
T1 construct: 1 unit/mL of HIV-RT (Worthington Biochemical Corp., Freehold, N.J.); purchased Worthington Biochemical Corp., Freehold, N.J
Procedure: Briefly, the analogues were initially dissolved in either DMSO or HEPES buffer (pH 7.2) and then diluted to the appropriate concentration before addition to the assay mixtures. […] Several control wells without any inhibitors were also included on each microtiter plate. The reactions were allowed to proceed for 1 h at 37° C. […] A more detailed description of reaction conditions is provided below in the Examples. The concentration of drug which inhibited 50% of the enzyme activity (IC50) was determined by using the computer software program Calcusyn, which plots the dose-effect curves from the inhibition data and calculates the IC50 for each drug.
(§1) The assay procedure described below is adapted from Okada et al. (Okada, H.; Mukai, H.; Inouye, Y; Nakamura, S. “Biological Properties of Streptonigrin Derivatives II. Inhibition of Reverse Transcriptase Activity,” J. Antibiot., 1986, 39, 306-308). The lavendamycin analogs were initially dissolved in DMSO at a concentration of 1 mg/mL. Occasionally, mild sonication and heat were used to dissolve the less soluble compounds. The dissolved analogs were then serially diluted in distilled water to achieve concentrations in the final reaction mixture ranging from 0.5-15 μM. In addition to the lavendamycin analogs, the final reaction mixture contained 100 mM Tris-HCl (pH 8.0), 5 mM MgCl2, 5 mM dithiothreitol, 60 mM NaCl, 0.2 mM [^3H] thymidine triphosphate(5 μCi well), 4 μg/mL poly (rA)-oligo(dT)12-18 (Amersham Pharmacia Biotech, Piscataway, N.J.) and 1 unit/mL of HIV-RT (Worthington Biochemical Corp., Freehold, N.J.) in a total volume of 300 μL. For each assay, the reaction mixture containing 8× buffer, double distilled H2O, ^3HTTP, template-primer and HIV-RT was pre-mixed in a 15-mL sterile tube in quantities required for the particular experiment. After adding the enzyme, the reaction mixture was mixed and kept on ice. The inhibitors, either AZT(Moravek Biochemicals, Brea, Calif.), analogs or both were added to appropriate wells in a 24 well microtiter plate and ddH2O was added to each well to bring the volume of all test wells to 100 μL. Two hundred μL of the chilled reaction mixture was then added to each of the test wells, mixed, and incubated for 1 hr at 37° C. Several control wells with no inhibitors were included on each test plate. After stopping the reactions with 25 μL 0.1 M EDTA, triplicate samples of 15 μL from each test well were spotted on DE81 ion exchange filter paper squares (Whatman Paper, Maidstone, England). After drying, each filter was washed for 10 minutes three times with 5% TCA-NHPO4, three times with 0.6M NaCl-[…] Na Citrate, one time with ddH2O and one time with 95% ethanol. After drying the individual filter papers were added to 5 mL Scintiverse E (Fisher Scientific, Chicago, Ill.) scintillation fluid and the amount of 3H-TTP uptake measured as counts per minute on a Beckman liquid scintillation counter. […] The results were then analyzed using Calcusyn, a windows software program for dose effect analysis designed by T. -C. Chou and M. P. Hayball and published by Biosoft® (UK).

[2] = tested on: tumor; test: Antitumor activity (applicant's earlier studies)
[3] = Water solubility in HEPES buffer solution; assay type: physicochemical
[4] = biological target: T2, HIV-RT (Human immunodeficiency virus type 1 group M subtype B, UniProt P04585); test: Two drug combination of AZT-TP and analogues at constant molar ratios in HIV-RT assay (CI and dose reduction index); assay type: biochemical
T2 construct: 1 unit/mL of HIV-RT (Worthington Biochemical Corp., Freehold, N.J.); purchased Worthington Biochemical Corp., Freehold, N.J
Text: In order to derive the dose reduction index of several of these compounds the method of Chou and Talalay was again employed using the classic isobologram technique. This method also involves the plotting of dose-effect curves for each agent as well as for multiply diluted fixed-ratio combinations of the agents.
The dose reduction index is a measure of how much the dose of each drug in a synergistic combination may be reduced at a given effect level compared with the doses of each drug alone.
as §1

[5] = tested on: BALB/c mice; test: In vivo toxicity of analogue 19 in BALB/c mice; parameters: species or system mouse
Text: Analogue 19 was first solubilized in 10% dry DMSO, diluted in water, and given to the mice intraperitoneally in one dose or in two doses per day. Mice were weighed and observed for 3 days following treatment.

[6] = Mean IC50 ± SEM (no. of expts), 50% inhibition of HIV RT activity toward 1 unit of enzyme
[7] = 50% inhibition of HIV RT activity toward 1 unit of enzyme, read-out: Mean IC50 ± SEM (no. of expts)

| Structure (SMILES) | IC50 [1, 6] [µM] | antitumor activity [2] | Water solubility [3] | dose reduction in combination with AZT-TP [4] | CI at HIV-RT Inhibition of 70% ([4]; molar ratio AZT:analogue 1:600) | Dose Reduction Index (50%) AZT-TP ([4]; molar ratio AZT:analogue 1:600) | Dose Reduction Index (50%) analogue ([4]; molar ratio AZT:analogue 1:600) | CI at HIV-RT Inhibition of 70% ([4]; molar ratio AZT:analogue 1:857) | Dose Reduction Index (50%) AZT-TP ([4]; molar ratio AZT:analogue 1:857) | Dose Reduction Index (50%) analogue ([4]; molar ratio AZT:analogue 1:857) | IC50 [1, 7] [µM] | IC50 ([1]; read-out: IC50 against HIV-RT) [µM] | CI at HIV-RT Inhibition of 50% ([4]; molar ratio AZT:analogue 1:600) | CI at HIV-RT Inhibition of 50% ([4]; molar ratio AZT:analogue 1:857) | other results |
| --- | --- | --- | --- | --- | --- | --- | --- | --- | --- | --- | --- | --- | --- | --- | --- |
| CC(=O)NC1=CC(=O)c2ccc(-c3nc(C(N)=O)cc4c3[nH]c3ccccc34)nc2C1=O [Compound 16, 7-N-Acetyldemethyllavendamycin Amide] | 12.7 ± 5.2 | highly active antitumor agents | – | – | – | – | – | – | – | – | – | – | – | – | – |
| CC(=O)NC1=CC(=O)c2ccc(-c3nc(C(=O)O)cc4c3[nH]c3ccccc34)nc2C1=O [Compound 18, 7-N-Acetyldemethyllavendamycin] | 13.3 ± 4.4 | – | 0.05 mg/1 L | considerable dose reduction | 1.35 ± 0.64 | 1.5 | 2.6 | 1.7 ± 1.49 | 1.7 | 2.0 | – | – | – | – | – |
| CCCCCCCCOC(=O)c1cc2c([nH]c3ccccc32)c(-c2ccc3c(n2)C(=O)C(N)=CC3=O)n1 [Compound 20, Demethyllavendamycin n-Octyl Ester] | – | – | – | considerable dose reduction | 0.40 ± .09 | 2.4 | 13.7 | – | – | – | 7.1 ± 2.7 | < 8 | 0.49 ± 0.17 | – | CI at HIV-RT Inhibition of 50% ([4]; molar ratio AZT:analogue 1:214): 0.46 ± 0.11; CI at HIV-RT Inhibition of 70% ([4]; molar ratio AZT:analogue 1:214): 0.56 ± 0.22; Dose Reduction Index (50%) AZT-TP ([4]; molar ratio AZT:analogue 1:214): 4.08; Dose Reduction Index (50%) analogue ([4]; molar ratio AZT:analogue 1:214): 4.63 |
| CC(=O)NC1=CC(=O)c2ccc(-c3nc(C(=O)OCCOP(=O)(O)O)cc4c3[nH]c3ccccc34)nc2C1=O [Compound 19] | – | – | 0.05 mg/1 mL | considerable dose reduction | <0.1 ± 0.16 | >100 | >100 | 0.21 ± 0.18 | >40 | >15 | – | – | <0.1 ± 0.10 | <0.1 ± 0.15 | inhibition at 15 µM ([1]; 15 μM): > 92%; IC50 ([1]; IC50 against HIV-RT): < 8 µM and 3 µM; survival and tolerability ([5]; 50 mg/kg as one ip injection): survived and tolerated; survival and tolerability ([5]; 75 mg/kg ip in two injections within twenty-four hours): survived and tolerated |
| CCCCOC(=O)c1cc2c([nH]c3ccccc32)c(-c2ccc3c(n2)C(=O)C(NC(=O)CCC)=CC3=O)n1 [Compound 12, 7-N-n-Butyryidemethyllavendamycin n-Butyl Ester] | – | – | – | considerable dose reduction | 0.32 ± 0.08 | 3.0 | 8.2 | 0.32 ± 0.09 | 3.9 | 7.3 | 5.8 ± 1.5 | < 8 | 0.45 ± 0.06 | 0.39 ± 0.06 | – |
| COC(=O)c1nc(-c2ccc3c(n2)C(=O)C(NC(C)=O)=CC3=O)c2[nH]c3ccccc3c2c1C [Compound 11, 7-acetyllavendamycin methyl ester] | 15.1 ± 5.9 | highly active antitumor agents | – | – | – | – | – | – | – | – | – | – | – | – | – |
